Measurements: patent US4107309A, “Substituted imidazo[1,2-d]-as-triazines” (American Cyanamid Company, priority 1977, dated 1978)

Legend:
[1] = tested on: mouse skin cyclic-AMP phosphodiesterase; test: mouse skin phosphodiesterase (PDE) inhibition test; type: biochemical; details: for phosphodiesterase activity, % of control: reference level used as activity criterion; for Mouse Skin Phosphodiesterase: test compound 10 ug./ml, active if it inhibits more than theophylline (to 50% of control at 1 mM or to 80% of control at 0.05 mM)
Source text: The novel compounds of the present invention are active in inhibiting the enzyme cyclic-AMP phosphodiesterase which is responsible for the metabolism of cyclic adenosine monophosphate which is usually simply referred to as cyclic AMP. As such, they are useful in the treatment of psoriasis, a disease in which the epidermal cyclic AMP levels are reported to be decreased. Also as such, they are useful in the treatment of asthma, since elevated levels of cyclic AMP in most cells are reported to inhibit the release of histamine and other mediators and since elevated levels of cyclic AMP in bronchial smooth muscle are reported to cause bronchodilation. See Ann. Reports in Medicinal Chem., Vol. 10, 197 (1975).
The inhibition of phosphodiesterase is determined by the mouse skin phosphodiesterase (PDE) inhibition test as follows:
Hairless mice (Jackson Laboratories), 3-4 months old are killed by cervical dislocation and their skins removed. Epidermal slices are taken at a thickness of 0.2 mm. The slices are weighed and homogenized at 100 mg./ml. in ice-cold tris-HCl buffer (0.04M, pH 8, containing 0.005M MgCl2). Homogenates are centrifuged at 17,000 × gravity for 30 minutes. The supernatants are divided into aliquots which are stored at -20° C. Dilutions of the PDE are made with tris-HCl buffer just prior to use.
AG1-X2®, 200-400 mesh (a polystyrene anionic exchange resin 8% cross linked from Bio-Rad Lab.) is washed with 0.5N HCl, 0.5N NaOH, 0.5N HCl and repeatedly with double distilled water to pH 5. The resin is allowed to settle and 2 volumes of water are added to one volume of settled resin.
^3 H-Cyclic AMP (21 c/m mole, Schwarz-Mann Inc.) is purified by addition of 0.1 to 0.2 ml. of stock (in 50% ethanol) to 5 ml. of anion exchange resin and 0.4 ml. of tris-HCl buffer. The mixture is vortexed, centrifuged at 1200 × gravity for 5 minutes and the supernatant is discarded. The resin is washed in the same manner eight more times with two volumes of tris-HCl buffer. Resin bound ^3 H-cyclic AMP is eluted by two successive washings with 4 ml. of 0.025N HCl (resin pH = 2.0). After centrifugation, the pooled acid washes containing ^3 H-cyclic AMP are aliquoted and lyophilized. The material is stored dry at -20° C. and reconstituted with tris-HCl buffer just prior to use with a volume sufficient to give approximately 200,000 CPM/0.1 ml.
PDE activity is measured by the method of W. J. Thompson and N. N. Appleman, Biochemistry 10, 311 (1971). Assays are conducted in 12 × 75 mm. polypropylene test tubes. The reaction mixture consists of ^3 H-cyclic AMP (200,000 CPM), unlabeled cyclic AMP, PDE (100 ug. protein) and test compounds which are prepared by dissolving the compounds in methanol at a concentration of 10 mg./ml. and then dilution of tris-HCl buffer. Final concentration of the test compounds in the incubation mixture is 10 ug./ml. The total volume of the incubation mixture is increased to 0.4 ml. with tris-HCl buffer containing 3.75 millimoles of 2-mercaptoethanol. The enzyme is incubated for 10 minutes at room temperature in the presence of the test compounds or buffer prior to the addition of the mixture of ^3 H-cyclic AMP and unlabeled cyclic AMP. Reactions are run at 30° C. for 15 minutes and then terminated by immersing in acetone-dry ice until frozen, followed by boiling for 3 minutes. […]

[2] = tested on: mouse passive cutaneous anaphylaxis (IgE and IgG lesions); test: mouse passive cutaneous anaphylaxis (PCA) test; type: in vivo; details: 50 mg./kg intraperitoneally at -1 hour; active if IgE or IgG lesion area significantly smaller than control
Method: Anti-asthma activity was determined by the mouse passive cutaneous anaphylaxis (PCA) test as follows.
Female mice (Charles River Breeding Labs.), weighing 20-22 gm. are inoculated intraperitoneally at approximately three weeks of age with 0.5 ml. of Timothy pollen antigen in complete Freund's adjuvant. The sensitizing antigen is prepared by suspending 60 mg. of Timothy antigen (Phleum pratense) in 6 ml. of Freund's Complete Adjuvant (Difco Labs.). Approximately 3-5 weeks after inoculation, ascitic fluid is removed from responding mice and tested for IgE and IgG type antibody by mouse PCA as follows:
Samples of ascitic fluid are diluted 1:10 and 50 μl are injected intradermally into five mice. The mice are challenged intravenously with antigen and Evans blue dye 48 hours later. Fifteen minutes after challenge, the dorsal skin is removed and examined for blue spots. […]
At -50 hour (relative to antigen challenge at 0 hour) 50 μl of IgE is injected intradermally on the left side of a 25 gm. female mouse, posterior to the axilla at the level of the diaphragm. […] Challenge and reading are performed in serial order so that reading of the assay is essentially blind. […] The largest and smallest diameters of the lesion and a qualitative estimate of intensity of color are recorded. […] IgE and IgG lesions are analyzed independently. […]

Compound | phosphodiesterase activity, % of control ([1]; 0.05 mM concentration) | phosphodiesterase activity, % of control ([1]; 1 mM concentration) | Mouse Skin Phosphodiesterase [1] | MOUSE PCA TEST [2]
Cn1c(=O)c2[nH]cnc2n(C)c1=O [theophylline, reference compound] | 80 % of control | 50 % of control |  | 
CSc1nncc2nccn12 [5-(Methylthio)-imidazo[1,2-d]-as-triazine] |  |  | Active | 
CN1CCN(c2nncc3nccn23)CC1 [5-(4-Methyl-1-piperazinyl)-imidazo[1,2-d]-as-triazine] |  |  | Active | Accept
c1coc(CNc2nncc3nccn23)c1 [5-(Furfurylamino)-imidazo[1,2-d]-as-triazine] |  |  | Active | 
